According to PubChem BioAssay AID328 (DTP/NCI, 2004):
Several values for one entry are separate records, joined by “and”; a condition that tells them apart may be missing. Equal values may be shown once. Inconclusive results and toxic doses are left out. Rule for the calls: active = survival T/C of 150% or more; inactive = T/C below 125% in these data.

Test system: BDF1 mice, P388 leukemia ip, median survival T/C
Assay: NCI In Vivo Anticancer Drug Screen. Data for tumor model P388 Leukemia (intraperitoneal) in B6D2F1 (BDF1) mice
Conditions: endpoint: median survival time, higher = longer survival
Summary of the method: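 Read-out is survival of treated animals expressed relative to the vehicle group, as a T/C ratio.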

[1] = dose: 50.0 mg/kg/injection, schedule: Q01DX009 (ip), vehicle: saline with Tween-80
[2] = dose: 100.0 mg/kg/injection, schedule: Q01DX009 (ip), vehicle: saline with Tween-80
[3] = dose: 200.0 mg/kg/injection, schedule: Q01DX009 (ip), vehicle: saline with Tween-80
[4] = dose: 400.0 mg/kg/injection, schedule: Q01DX009 (ip), vehicle: saline with Tween-80
[5] = dose: 100.0 mg/kg/injection, schedule: Q04DX003 (ip), vehicle: saline with Tween-80
[6] = dose: 200.0 mg/kg/injection, schedule: Q04DX003 (ip), vehicle: saline with Tween-80
[7] = dose: 400.0 mg/kg/injection, schedule: Q04DX003 (ip), vehicle: saline with Tween-80
[8] = dose: 25.0 mg/kg/injection, schedule: Q01DX009 (ip), vehicle: saline with Tween-80
[9] = dose: 100.0 mg/kg/injection, schedule: Q01DX009 (ip), vehicle: other
[10] = dose: 100.0 mg/kg/injection, schedule: Q04DX003 (ip), vehicle: Klucel (hydroxypropylcellulose) (HPC)
[11] = dose: 200.0 mg/kg/injection, schedule: Q04DX003 (ip), vehicle: Klucel (hydroxypropylcellulose) (HPC)

Measured: T/C

CN(C)CC(C(=O)c1ccc(Br)cc1)C(Br)c1ccccc1 (stereo not given)
inactive: dose: 0.78 mg/kg/injection, schedule: Q01DX009 (ip), vehicle: Klucel (hydroxypropylcellulose) (HPC) 100 % of control | dose: 1.56 mg/kg/injection, schedule: Q01DX009 (ip), vehicle: Klucel (hydroxypropylcellulose) (HPC) 95 % of control | dose: 3.12 mg/kg/injection, schedule: Q01DX009 (ip), vehicle: Klucel (hydroxypropylcellulose) (HPC) 108 % of control | dose: 4.6 mg/kg/injection, schedule: Q01DX009 (ip), vehicle: saline 113 % of control | dose: 7.0 mg/kg/injection, schedule: Q01DX009 (ip), vehicle: saline 118 % of control | dose: 10.0 mg/kg/injection, schedule: Q01DX009 (ip), vehicle: saline 109 % of control | dose: 14.0 mg/kg/injection, schedule: Q01DX009 (ip), vehicle: saline 108 % of control | dose: 16.25 mg/kg/injection, schedule: Q04DX003 (ip), vehicle: saline 100 % of control | dose: 22.0 mg/kg/injection, schedule: Q01DX009 (ip), vehicle: saline 108 % of control | dose: 32.5 mg/kg/injection, schedule: Q04DX003 (ip), vehicle: saline 105 % of control | dose: 65.0 mg/kg/injection, schedule: Q04DX003 (ip), vehicle: saline 110 % of control

COc1ccc(/C=C/[N+](=O)[O-])cc1O
inactive: dose: 6.25 mg/kg/injection, schedule: Q01DX009 (ip), vehicle: saline 106 % of control | dose: 12.5 mg/kg/injection, schedule: Q01DX009 (ip), vehicle: saline 115 % of control and 121 % of control | dose: 12.5 mg/kg/injection, schedule: Q04DX003 (ip), vehicle: saline 113 % of control | dose: 25.0 mg/kg/injection, schedule: Q01DX009 (ip), vehicle: saline 111 % of control and 121 % of control | dose: 25.0 mg/kg/injection, schedule: Q04DX003 (ip), vehicle: saline 113 % of control | dose: 50.0 mg/kg/injection, schedule: Q01DX009 (ip), vehicle: saline 95 % of control and 123 % of control | dose: 50.0 mg/kg/injection, schedule: Q04DX003 (ip), vehicle: saline 114 % of control and 122 % of control | dose: 100.0 mg/kg/injection, schedule: Q04DX003 (ip), vehicle: saline 114 % of control and 122 % of control

COc1cccc2c1C13CC(C)CC(C2)C1CCC(=O)N3 (stereo not given)
inactive: dose: 75.0 mg/kg/injection, schedule: Q04DX003 (ip), vehicle: saline 100 % of control | dose: 150.0 mg/kg/injection, schedule: Q04DX003 (ip), vehicle: saline 105 % of control | dose: 300.0 mg/kg/injection, schedule: Q04DX003 (ip), vehicle: saline 116 % of control

CC(=Nc1ccccc1)C1=C(O)C(Cc2ccc(O)cc2)NC1=O (stereo not given)
inactive: [1] 110 % of control | [2] 101 % of control

COC(=O)C1(C)CCCC2(C)C1CCC13OCC(CC21)C(=C(C)C)C3OC(C)=O (stereo not given)
inactive: [2] 100 % of control | [3] 100 % of control | [4] 90 % of control

Cc1cccc(NC=O)c1
inactive: [1] 109 % of control | dose: 75.0 mg/kg/injection, schedule: Q01DX009 (ip), vehicle: saline with Tween-80 113 % of control | [5] 115 % of control | dose: 115.0 mg/kg/injection, schedule: Q01DX009 (ip), vehicle: saline with Tween-80 104 % of control | [6] 96 % of control | dose: 225.0 mg/kg/injection, schedule: Q01DX009 (ip), vehicle: saline with Tween-80 109 % of control | dose: 300.0 mg/kg/injection, schedule: Q01DX009 (ip), vehicle: saline with Tween-80 113 % of control | [7] 96 % of control

CCOC(=O)CC1NCCC2C1CCC(OC)C2OC (stereo not given)
inactive: dose: 12.5 mg/kg/injection, schedule: Q01DX009 (ip), vehicle: saline with Tween-80 95 % of control | [8] 100 % of control | [1] 100 % of control | dose: 50.0 mg/kg/injection, schedule: Q04DX003 (ip), vehicle: other 110 % of control | [9] 105 % of control | dose: 100.0 mg/kg/injection, schedule: Q04DX003 (ip), vehicle: other 100 % of control | dose: 200.0 mg/kg/injection, schedule: Q01DX009 (ip), vehicle: other 110 % of control | dose: 200.0 mg/kg/injection, schedule: Q04DX003 (ip), vehicle: other 100 % of control

COc1cc2c(cc1Oc1c(Oc3c(O)c(OC)cc4c3C(CC(C)C)N(C)CC4)c(OC)cc3c1C(CC(C)C)N(C)CC3)C(CC(C)C)N(C)CC2 (stereo not given)
inactive: dose: 12.5 mg/kg/injection, schedule: Q01DX010 (ip), vehicle: saline 95 % of control | dose: 25.0 mg/kg/injection, schedule: Q01DX010 (ip), vehicle: saline 90 % of control | dose: 50.0 mg/kg/injection, schedule: Q01DX010 (ip), vehicle: saline 95 % of control

O=C1c2ccccc2C(=O)c2c(NCCSCCO)ccc(NCCSCCO)c21
inactive: dose: 25.0 mg/kg/injection, schedule: Q01DX009 (ip), vehicle: other 95 % of control | dose: 50.0 mg/kg/injection, schedule: Q01DX009 (ip), vehicle: other 86 % of control | [9] 94 % of control

CN=C(c1ccccc1)C1(O)CC2CCC1C2 (stereo not given)
inactive: dose: 100.0 mg/kg/injection, schedule: Q01DX001 (ip), vehicle: saline with Tween-80 100 % of control | dose: 200.0 mg/kg/injection, schedule: Q01DX001 (ip), vehicle: saline with Tween-80 104 % of control | dose: 400.0 mg/kg/injection, schedule: Q01DX001 (ip), vehicle: saline with Tween-80 100 % of control

c1ccc(CC2NCCc3ccccc32)cc1 (stereo not given)
inactive: [8] 96 % of control | dose: 25.0 mg/kg/injection, schedule: Q04DX003 (ip), vehicle: saline with Tween-80 115 % of control | [1] 111 % of control | dose: 50.0 mg/kg/injection, schedule: Q04DX003 (ip), vehicle: saline with Tween-80 105 % of control | [2] 107 % of control | [5] 105 % of control

Cc1cc(=O)n(Cc2ccccc2)c(O)c1C
inactive: [10] 102 % of control | [11] 94 % of control

Cc1cc(N(C)C)c2ccc3c(ccc4c(N(C)C)cc(C)nc43)c2n1
inactive: [1] 121 % of control | [2] 123 % of control

O=C(Nc1ccccc1)Nc1ccc([N+](=O)[O-])cc1
inactive: [10] 105 % of control | [11] 110 % of control | dose: 400.0 mg/kg/injection, schedule: Q04DX003 (ip), vehicle: Klucel (hydroxypropylcellulose) (HPC) 105 % of control

CC(C)=CCC/C(C)=C/COC(=O)Cc1ccccc1
inactive: [2] 104 % of control | [5] 100 % of control | [3] 109 % of control | [6] 105 % of control | [4] 118 % of control | [7] 122 % of control

N/C(=N/O)c1[nH]cnc1N
inactive: dose: 12.5 mg/kg/injection, schedule: Q01DX009 (ip), vehicle: water 101 % of control | dose: 25.0 mg/kg/injection, schedule: Q01DX009 (ip), vehicle: water 97 % of control | dose: 50.0 mg/kg/injection, schedule: Q01DX009 (ip), vehicle: water 103 % of control | dose: 100.0 mg/kg/injection, schedule: Q01DX009 (ip), vehicle: water 103 % of control
